Measured values taken from patent US20070060551A1, “Methods of using isothiazole derivatives to treat cancer or inflammation” (QLT, Inc., priority 2002, published 2007).

Legend:
PTPN12 = target: T1, PTPN12 (Homo sapiens, UniProt Q05209); experiment: PTPN12 in vitro phosphatase assay (malachite green phosphate release); assay type: biochemical; conditions: for % Inhibition of PTPN12: at 20 μm concentration
T1 construct: Expression of human truncated PTPN12 (PTP-PEST-N) as a fusion protein; made in house; host or cells: E. coli strain ER2566 (IMPACT vector pTWIN-II)
T1 sequence (Q05209 28-293 limits assumed): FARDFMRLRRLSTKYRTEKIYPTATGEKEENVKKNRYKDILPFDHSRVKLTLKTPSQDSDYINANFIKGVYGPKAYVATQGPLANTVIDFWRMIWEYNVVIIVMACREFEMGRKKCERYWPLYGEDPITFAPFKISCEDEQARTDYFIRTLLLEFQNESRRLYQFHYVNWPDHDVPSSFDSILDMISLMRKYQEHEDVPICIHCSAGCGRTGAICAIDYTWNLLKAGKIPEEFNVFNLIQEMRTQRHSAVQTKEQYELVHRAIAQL
Method: Expression of human truncated PTPN12 (PTP-PEST-N) as a fusion protein required that the cDNA be ligated into the polyclonal site situated in frame and upstream of the intein gene of the IMPACT™ expression vector pTWIN-II. The truncated version was used as it was far easier to handle and gave parallel results to the full length protein in comparison testing. For the purpose of simplicity, PTP-PEST-N will be used interchangeably with PTPN12 in these Examples.
Biochemical analysis is performed on recombinant human PTPN12 fusion protein. […] This activity is considered to be in the high range as compared to other recombinant protein tyrosine phosphatases. PTPN12 preparations were subsequently used extensively in in vitro assays for the initial discovery of compounds having the ability to inhibit PTPN12 activity.
Compounds were tested in the following assay for their ability to inhibit the activity of the desired phosphatase.
The enzyme (phosphatase) activity was determined in a reaction that measured phosphate relase from tyrosine phospho-specific peptides using a method first described by Harder et al., Biochem. J. (1994), Vol. 298, pp. 395-401. This is a non-radioactive method for measuring free phosphate by the malachite green method first described by Van Veldhoven and Mannaerts, Anal Biochem. (1987), Vol.161, pp. 45-48. 10× assay buffer (250 mM Tris:100 mM, β-Mercaptoethanol, 50 mM EDTA; pH 7.2) was diluted to 5× concentration with distilled H2O (dH2O). Then 71.4 μM of substrate working stock solution was prepared in dH2O.
In a Falcon 96 well plate the sample compound was diluted in 1% DMSO (One mL DMSO (Sigma, Cat. # D-8779) dissolved in 99 mL dH2O and stored at room temperature) such that the concentration of the sample compound working stock solution is ten times the final desired concentration of the compound in the assay.
The negative control consisted of 5 μl 1% DMSO and 35 μL substrate working stock solution and 10 μL diluted enzyme, per well), and was placed in the first column of wells on the plate. The last column of wells on the plate was reserved for an enzyme blank, which consisted of 5 μL 1% DMSO, 35 μL substrate working stock solution, and 10 μL 5× assay buffer, per well. Test samples were placed in columns 2-11 and consisted of 5 μL sample in 1% DMSO, 35 μL substrate working stock solution, and 10 μL of diluted enzyme, per well, at the desired concentration. Using the repeater function of a Biohit™ multichannel pipettor, 5 μL of 100 μM sample from the Falcon plate columns was added to corresponding Costar™ assay plate columns.
Using a multichannel pipettor, 35 μL of 71.4 μM ppC-SRC 60 substrate was added to all assay wells, then 10 μL of appropriately diluted enzyme was added to the wells on a column by column basis, pausing 5 seconds between columns. Timing started at the first addition.
The assay plate was incubated at room temperature (21° C.) for 15 minutes. The reaction was “stopped” by adding 100 μL colour reagent on a column by column basis, pausing 5 seconds between columns. Colour was allowed to develop for at least 15 minutes, but no longer than two hours, at room temperature. The plate was “read” on Bio-tek Instruments EL312e™ microplate Bio-Kinetics™ reader at 590 nm and the data collected as per instrument manual.
The blank and negative controls were read, and blanks were subtracted from the average of negative control values and sample values, and the % inhibition was expressed by the following formula: % Inhibition=100−[corrected sample reading/corrected Negative Control reading*100].

various cell lines = experiment: Cytotoxicity assay (calcein AM cell viability); assay type: cell-based; conditions: approximately 24 hours incubation
Excerpt: This procedure is used to assess the effects compounds have on various cell lines with respect to cell viability. Cell viability is quantified using calcein AM and measuring its conversion to a fluorescent product (calcein) with a fluorimeter.
The principle of this assay is based on the presence of ubiquitous intracellular esterase activity found in live cells. By enzymatic reaction of esterase, non-fluorescent cell-permeant calcein AM is converted to the intensely fluorescent calcein. The polyanionic dye calcein is retained within live cells, producing a green fluorescence in live cells. […]
Cells were collected from tissue culture flasks and trypsinized, centrifuged, resuspended and counted. […]
The calcein AM solution is prepared by added 50 μg of calcein AM crystal (m.w. =994.87 g/mol, Molecular Probes, Eugene, Oreg.) and Anhydrous DMSO (Sigma Aldrich) to make 1 mM stock and diluting stock to 2× the final desired concentration in 1× DPBS just before the assay. […] Fluorescence data was read and recorded (Fluoroskan Ascent® FL fluorimeter (excitation˜485nm, emission˜527nm)).
The values for replicates (usually six) are averaged and % inhibition is calculated as follows: % inhibition=100−[(AVG treatment−AVG positive control)/(AVG negative control−AVG positive control)*100]

caspase-3 = target: T2, caspase-3 (Homo sapiens, UniProt P42574); experiment: Caspase-3 selectivity assay (Calbiochem kit, colorimetric); assay type: biochemical
T2 construct: purchased Calbiochem
T2 sequence (P42574 29-175 limits assumed): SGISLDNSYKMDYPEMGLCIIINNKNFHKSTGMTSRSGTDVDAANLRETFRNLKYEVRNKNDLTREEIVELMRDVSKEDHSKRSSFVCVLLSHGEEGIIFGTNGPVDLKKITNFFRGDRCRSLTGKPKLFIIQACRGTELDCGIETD
T2 sequence (P42574 176-277 limits assumed): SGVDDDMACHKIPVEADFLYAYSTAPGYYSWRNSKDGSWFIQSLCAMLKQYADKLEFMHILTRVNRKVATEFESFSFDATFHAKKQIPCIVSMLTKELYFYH
Excerpt: This is a selectivity assay, which provides information about the specificity of the compounds. A cysteine residue located within the active pocket of the catalytic domain that is conserved between the […] like caspase-3 and the protein tyrosine phosphatases like PTPN12 has a thiol group within this cysteine amino acid that may interact with specific R-groups with inhibiting compounds with in vitro enzyme inhibiting activity. Also, caspase inhibition can prevent apoptosis from occurring in some cases via the caspase cascade. As the potential for cross-inhibitory activity and nonselectivity exists, the caspase-3 assay is performed on PTN12 inhibitors.
The Calbiochem caspase-3 assay kit was utilized according to package insert instructions. The assay is useful for screening for caspase-3 inhibitors measuring the protease activity of caspase-3 and other caspase-3-like activities. Cleavage is monitored calorimetrically by measuring the increase in absorbance at 405 nm. Assays were performed in a 96-well microtiter plate format.

## CS(=O)(=O)c1nsc(S(C)(=O)=O)c1C(=O)NC(=O)Nc1ccccc1Cl [1-(3,5-Bis-methanesulfonyl-isothiazole-4-carbonyl)-3-(2-chloro-phenyl)-urea]
PTPN12
  % Inhibition of PTPN12: 63%

## N#Cc1c(SCC(=O)Nc2ccc(S(N)(=O)=O)cc2)nsc1SCC(=O)Nc1ccc(S(N)(=O)=O)cc1 [2-{4-Cyano-3-[(4-sulfamoyl-phenylcarbamoyl)-methylsulfanyl]-isothiazol-5-ylsulfanyl}-N-(4-sulfamoyl-phenyl)-acetamide]
PTPN12
  % Inhibition of PTPN12: 73%

## CCS(=O)(=O)CCSc1nsc(SCCS(=O)(=O)CC)c1C#N [3,5-Bis-(2-ethanesulfonyl-ethylsulfanyl)-isothiazole-4-carbonitrile]
PTPN12
  % Inhibition of PTPN12: 60%

## CSc1nsc(SCc2ccccc2)c1C(N)=O [5-Benzylsulfanyl-3-methylsulfanyl-isothiazole-4-carboxylic acid amide]
Various cell lines
  cytotoxicity (cell viability, calcein AM): no cytotoxicity
PTPN12; PTPN12, unit inferred
  IC50: 1.5 µM
PTPN12; at 20 μM (Table 2)
  inhibition at 20 µM: 94%
caspase-3; at 10 μm
  % Inhibition of Caspase 3: 4 at 10 μm %
caspase-3; at 100 μm
  % Inhibition of Caspase 3: 14 at 100 μm %

## CSc1nsc(SC)c1C(=O)N1CCCCC1 [(3,5-Bis-methylsulfanyl-isothiazol-4-yl)-piperidin-1-yl-methanone]
PTPN12
  % Inhibition of PTPN12: 51%
